Reference: patent US4149007A, “C14 Phenyl-substituted derivatives of prostaglandin analogues” (Miles Laboratories, Inc., priority 1977, dated 1979)
“Also recorded” adds a separate entry of the source.

What was measured:
rat uterus = experiment: Effects on the rat uterus in vitro; format: cell-based; details: dose producing response 50% that of carbachol
Protocol: (B) effect on the rat uterus in vitro;
The uterine stimulant effect of test compounds was determined in segments of uterus obtained from rats (140-160 g) pretreated subcutaneously with 1 mg/kg of diethylstilbesterol 18 hours before the experiment. The tissues were placed in 10 ml chambers filled with de-Jalon solution at 29° C., were aerated and bubbled with 95% O2 and 5% CO2, and were prepared for isometric recording with force displacement transducers. Preparations were stretched to an initial tension of 1 g and were left undisturbed for 30 minutes. Carbachol (1 mcg/ml) was then added to the bath and a response was recorded. After a ten minute interval the carbachol procedure was repeated. Responses to increasing concentrations of a test compound (0.001 to 10 mcg/ml with one log intervals) were then recorded every 10 minutes. Preparations were washed four times after each response. All doses of compounds were administered in a 0.1 ml volume. Because it has been observed that the magnitude of the second response to carbachol (approximately 10% greater than the first) is close to the maximal response of the tissue, such value was taken as a measure of the sensitivity of a particular segment. Responses to each concentration of the test compound were expressed in terms of percentage of the second response to carbachol and the ED50 (dose producing a response 50% that of carbachol) was calculated graphically.
Activity was scored according to the following scale: […]

guinea pig trachea = experiment: Effects on the guinea pig trachea in vitro; format: cell-based; details: 0.01-10.0 mcg/ml, relative to PGE1 0.1 mcg/ml
Protocol: (C) effect on the guinea pig trachea in vitro;
A male guinea pig weighing 200-500 g was killed by a blow on the head. A 20 mm length of the trachea was dissected from the animal, transferred to a petri dish containing Krebs' solution (aerated with 95% O2 and 5% CO2 at 37° C.), and cut longitudinally opposite the tracheal muscle. The tissue was then cut transversely three quarters of the distance across, a second cut in the opposite direction (again three quarters of the distance across the tissue) was made and the procedure was continued for the whole tissue. The ends of the trachea were pulled to form a zig-zig shaped strip. The tracheal strip used in the experiment was approximately 30 mm when extended under 0.25-0.5 g load in the tissue bath. Cotton thread was tied to one end of the tissue, and linen thread to the other. It was attached via the linen thread to a glass hook in a 5 ml isolated tissue bath containing Krebs' solution (37° C., aerated with a mixture of 95% O2 and 5% CO2). […]
A test compound was then added to the same two strips at bath concentrations of 0.01, 0.1, 1.0, and 10.0 mcg/ml and the effects of the compound were recorded. […] The mean of the effects of the test compound on the two strips was then calculated for each concentration, and, based on the resulting values, an activity value was assigned as follows: […]

anesthetized cat = experiment: Effects on blood pressure and heart rate in the anesthetized cat; format: in vivo; details: i.v. 0.01 to 10.0 mcg/kg, scored on hypotension only
Protocol: (G) effect on blood pressure and heart rate in the anesthetized cat;
The acute effects of test compounds on blood pressure and heart rate were determined in cats of either sex anesthetized with a mixture of pentobarbital sodium (35 mg/kg, i.v.) and barbital sodium (100 mg/kg, i.v.). Cannulas were placed in the trachea to allow adequate spontaneous ventilation, in a femoral artery for blood pressure recording with a strain gage transducer, and in a saphenous vein for drug administration. Heart rate was recorded by means of a cardiotachometer driven by the R wave of the electrocardiogram. After a period of 10 minutes of stable recordings of blood pressure and heart rate, the test compound was administered intravenously at doses increasing from 0.01 to 10.0 mcg/kg, spaced one log and injected at 10 minute intervals. All doses were injected in a volume of 0.1 ml/kg. Modifications of blood pressure and heart rate induced by the test compound were expressed both in absolute units (mmHg and beats/minute) and as percent of values recorded immediately before administration of each dose. […]
Activity of compounds in this test was judged only on the basis of the degree of hypotension observed. Thus, the ED50 mmHg (dose decreasing blood pressure by 50 mmHg) was calculated graphically, and the compound scored according to the following scale: […]

anesthetized dog = experiment: Effects on femoral blood flow in the anesthetized dog; format: in vivo; details: intraarterial 0.001 to 10 mcg
Protocol: (H) effect on femoral blood flow in the anesthetized dog; and
The peripheral vasodilator or constrictor effects of test compounds were determined in mongrel dogs of either sex, weighing between 10 and 20 kg, anesthetized intravenously with 35 mg/kg of pentobarbital sodium. An external iliac artery was dissected immediately above the femoral arch for a length of approximately 5 cm, and a previously calibarated, non-cannulating electromagnetic-flowmeter sensor with a lumen between 2.5 and 3.5 mm was placed snugly around the vessel. Cannulas were placed in a branch of the artery arising distally to the location of the flowmeter sensor for intraarterial drug administrations, in the contralateral femoral artery for systemic blood pressure recording, and in the trachea for artificial respiration with room air. Femoral blood flow and systemic blood pressure were continuously recorded with an electromagnetic flowmeter and pressure transducer, respectively.
After an adequate control period, test compounds were injected intraarterially at one log-spaced doses ranging from 0.001 to 10 mcg, in a volume of 0.5 ml and at 5 to 10 minute intervals. […] The dose changing blood flow by 100 ml/min (ED100 ml/min) was calculated graphically and was used for scoring activity as follows: […]

hypertensive rat = experiment: Effects on blood pressure in the hypertensive rat; format: in vivo; parameters: key: 0: Not significant at any time interval; 1: Significant at one time interval; 2: Significant at two time intervals; details: 1 mg/kg intraperitoneal; 2, 4, 6 and 9 hours
Protocol: (I) effect on systolic blood pressure in the hypertensive rat
The acute anithypertensive activity of test compounds was determined in rats made hypertensive by the procedure of Grollman (Proc. Soc. Exper Biol. Med., 57: 102 [1944]). Female rats weighing between 60 and 100 g were anesthetized with ether, the right kidney approached through a flank retroperitoneal incision, decapsulated and tied with a figure-of-eight-ligature. The animals were left to recover and two weeks later were again anesthetized and the contralateral kidney removed. […]
Blood pressure was measured in the tail with an inflatable occluding cuff placed at the base of the extremity and a pulse detector located distally. The cuff was inflated to approximately 300 mmHg and was slowly deflated until pulsations appeared, indicating the level of systolic pressure; diastolic pressure was not recorded by this procedure. […] In all cases, three pressure readings were obtained in succession and mean values were calculated thereof.
Experiments were carried out in groups of five hypertensive rats in which systolic pressure was determined immediately before and 2, 4, 6 and 9 hours after intraperiotoneal administration of the test compound at a dose of 1 mg/kg. Drugs were diluted from stock solutions with phosphate buffer (Lee et al., Prostaglandins, 3: 29 [1973]), so as to inject this quantity in a volume of 1 ml/kg. […]

guinea pig ileum [1] = experiment: Antagonism of the effects of PGE1 on the guinea pig ileum in vitro; format: cell-based; details: listed as TR 4412
Protocol: (§1) The degree and specificity of antagonism of test compounds to the smooth muscle stimulant effects of prostaglandins were assessed in segments of terminal guinea pig ileum. Preparations were placed in tissue chambers filled with Ringer-Tyrode solution at 37° C., bubbled with a mixture of 95% O2 and 5% CO2, and arranged for isometric recording with force displacement transducers. The segments were stretched to an initial tension of 1 g, and responses to a test concentration of acetylcholine (0.1 mcg/ml) were obtained every 5 minutes until two similar responses were observed (usually after four administrations). […] Any direct contractile effect of the test compound was recorded and evaluated in terms of mean values in grams of tension developed at each concentration. Responses to the different agonists observed after incubation with the test compound were expressed as percent of control responses. All drugs were administered in a volume of 0.1 ml.
(§2) Antagonism to prostaglandins was scored independently for PGE1 and PGF2α according to the following criteria: […]

guinea pig ileum [2] = experiment: Antagonism of the effects of PGF2α on the guinea pig ileum in vitro; format: cell-based; details: listed as TR 4412
Protocol: as §1, §2

SMILES | Rat Uterus: activity value (ED50) (rat uterus) | Guinea Pig Trachea: activity value (guinea pig trachea) | Feline Blood Pressure, Heart Rate: activity value (ED50 mmHg) (anesthetized cat) | Femoral Blood Flow: activity value (ED100 ml/min) (anesthetized dog) | Blood Pressure Hypertensive Rat: activity value (hypertensive rat) | antagonism to the smooth muscle stimulant effects of PGE1 (in words) (guinea pig ileum [1]) | antagonism to the smooth muscle stimulant effects of PGF2α (in words) (guinea pig ileum [2])
CCCCC[C@@H](O)/C(=C/[C@H]1[C@H](O)CC(=O)[C@@H]1C/C=C\CCCC(=O)OCC)c1ccccc1 [Example 7A, Ethyl 14-Phenyl-11α,15R-dihydroxy-9-oxoprosta-5Z,13E-dien-1-oate] | 0 (>10) | 1 |  |  |  |  | 
CCCCC[C@H](O)/C(=C/[C@H]1[C@H](O)CC(=O)[C@@H]1CCCCCCC(=O)OC)c1ccccc1 [Example 1, Methyl 14-Phenyl-11α,15S-dihydroxy-9-oxoprost-13E-en-1-oate] | 0 (>10) |  | 0 (>10.0) | 0 (>10.0) | 0 | exhibited antagonism to the smooth muscle stimulant effects of PGE1 and PGF2α; also recorded: demonstrated a specificity of antagonism to the smooth muscle stimulant effects of PGE1 and PGF2α | exhibited antagonism to the smooth muscle stimulant effects of PGE1 and PGF2α; also recorded: demonstrated a specificity of antagonism to the smooth muscle stimulant effects of PGE1 and PGF2α
